# Measurements: patent US6534524B1, “Indazole compounds and pharmaceutical compositions for inhibiting protein kinases, and methods for their use” (Agouron Pharmaceuticals, Inc., priority 1999, dated 2003)
# Read-outs that look alike come from different tables or passages of the source.
# Assays:
# [1] = target: unphosphorylated VEGF-R2Δ50 (FLVK) (Homo sapiens, UniProt P35968, DEL940-989/E990V); test: VEGF-R2 coupled spectrophotometric assay, unphosphorylated VEGF-R2Δ50 (FLVK); settings: for Ki: FLVK Ki, Table 1
# [2] = target: T1, human CHK1 (FL-CHK1) (Homo sapiens, UniProt O14757); test: CHK1 assay (coupled spectrophotometric, Syntide-2); assay type: biochemical; settings: read-out: CHK-1 Ki
# T1 construct: C-terminally His-tagged full-length human CHK1 (FL-CHK1); made in house; host or cells: baculovirus/insect cell system
# T1 sequence (O14757 1-476): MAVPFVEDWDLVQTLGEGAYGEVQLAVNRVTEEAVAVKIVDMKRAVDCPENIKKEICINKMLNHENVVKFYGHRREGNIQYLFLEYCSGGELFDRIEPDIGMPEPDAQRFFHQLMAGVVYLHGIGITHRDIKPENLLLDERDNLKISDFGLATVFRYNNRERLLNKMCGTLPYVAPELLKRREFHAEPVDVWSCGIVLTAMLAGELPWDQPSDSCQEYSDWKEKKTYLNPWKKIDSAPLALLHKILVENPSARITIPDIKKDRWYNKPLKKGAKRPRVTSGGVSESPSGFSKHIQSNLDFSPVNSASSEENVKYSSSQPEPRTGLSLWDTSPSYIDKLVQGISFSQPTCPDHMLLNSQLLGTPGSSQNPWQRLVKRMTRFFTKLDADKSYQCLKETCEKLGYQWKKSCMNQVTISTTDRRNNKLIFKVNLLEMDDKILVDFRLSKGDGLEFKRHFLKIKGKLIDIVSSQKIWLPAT
# In short: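 Full-length C-terminally His-tagged human CHK1 expressed in baculovirus/insect cells, used at 10 nM with Syntide-2 substrate. ADP formation coupled via PK/LDH to NADH oxidation, followed as absorbance decrease at 340 nm. Ki from initial rates at varying compound concentrations.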
# [3] = target: phosphorylated VEGF-R2Δ50 (FLVK-P) (Homo sapiens, UniProt P35968, DEL940-989/E990V); test: VEGF-R2 coupled spectrophotometric assay, phosphorylated VEGF-R2Δ50 (FLVK-P)
# [4] = target: CDK4/Cyclin D3 complex (Homo sapiens, UniProt P11802); test: CDK4/Cyclin D assay ([32P]ATP, Rb fragment)
# [5] = target: T2, LCK tyrosine kinase (Homo sapiens, UniProt P06239, C224D/P223M); test: LCK spectrophotometric assay; assay type: biochemical; settings: Table 1; for Ki: read-out: Lck-P Ki; for inhibition at 1 µM: compound concentration 1 μM, read-out: Lck-P % inhibition
# T2 construct: starting from amino acid residue 223 to the end of the protein at residue 509; made in house; host or cells: insect cells
# Procedure: The production of ADP from ATP that accompanies phosphoryl transfer was coupled to oxidation of NADH using phosphoenolpyruvate (PEP) and a system having pyruvate kinase (PK) and lactic dehydrogenase (LDH). The oxidation of NADH was monitored by following the decrease of absorbance at 340 nm (e340=6.22 cm^−1 mM^−1) using a Beckman DU 650 spectrophotometer. […] Ki values were determined by measuring enzyme activity in the presence of varying concentrations of test compounds. The data were analyzed using Enzyme Kinetic and Kaleidagraph software.
# The spectrophotometric assay was carried out as described above for VEGF-R2, except for the following changes in concentration: LCK=60 nM, MgCl2=0 mM, poly(E4Y1)=20 mM.
# [6] = target: CDK2/Cyclin A (Homo sapiens, UniProt P24941); test: CDK2/Cyclin A assay ([32P]ATP, Rb fragment); assay type: biochemical; settings: Table 3
# [7] = target: CDK1 (Homo sapiens, UniProt P06493); test: CDK1 inhibition; assay type: biochemical; settings: Table 3
# [8] = Determination of inhibitor concentration in mouse plasma after intraperitoneal and oral dosing; assay type: in vivo
# In short: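 Plasma levels quantified by HPLC or LC-MS using a standard curve prepared in mouse plasma, following ethyl acetate extraction with internal standard and sodium hydroxide. Sampling at 0.5, 1, 4 h (ocular bleed) and 7 h (cardiac puncture) after oral or intraperitoneal dosing.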
# [9] = test system: retinal vasculature (VEGF dependent); test: In vivo assay of retinal vascular development in neonatal rats; settings: P8 model; intravitreal; 5 mg/ml; vehicle PEG/water 50:50
# [10] = Human liver microsome (HLM) assay; assay type: in vitro ADME; settings: human liver microsomes, 5 μM test compound
# In short: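 LC-MS quantified test compound remaining after 0 and 2 h incubation with human liver microsomes. Triplicate samples, clarified by 10 min centrifugation at 14000 g.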
# [11] = target: human FGF-R1 (Homo sapiens, UniProt P11362, C488A/C584S/L457V); test: FGF-R spectrophotometric assay; settings: for inhibition at 1 µM: read-out: FGF-P % inhibition, Table 1, compound concentration 1 μM
# [12] = test system: human umbilical vein endothelial cells (HUVEC); test: HUVEC proliferation assay (VEGF-stimulated, MTT); assay type: cell-based; settings: Homo sapiens, HUVEC
# [13] = IP, 25 mg/kg, vehicle PEG400:H2O pH 2.3 60:40
# [14] = PO, 50 mg/kg, vehicle PEG400:H2O pH 2.3 60:40
# [15] = female, IP, 25 mg/kg, vehicle PEG400:H2O pH 2.3 60:40, read-out: Cmin (7 hr conc.)
# [16] = female, PO, 50 mg/kg, vehicle PEG400:H2O pH 2.3 60:40, read-out: Cmin (7 hr conc.)
# [17] = + albumin, read-out: HUVEC + albumin IC50
# [18] = PO, 25 mg/kg, vehicle PEG400:H2O pH 2.3 30:70
# [19] = female, PO, 25 mg/kg, vehicle PEG400:H2O pH 2.3 30:70, read-out: Cmin (7 hr conc.)
# Chain of human FGF-R1 (P11362 456-766 L457V/C488A/C584S): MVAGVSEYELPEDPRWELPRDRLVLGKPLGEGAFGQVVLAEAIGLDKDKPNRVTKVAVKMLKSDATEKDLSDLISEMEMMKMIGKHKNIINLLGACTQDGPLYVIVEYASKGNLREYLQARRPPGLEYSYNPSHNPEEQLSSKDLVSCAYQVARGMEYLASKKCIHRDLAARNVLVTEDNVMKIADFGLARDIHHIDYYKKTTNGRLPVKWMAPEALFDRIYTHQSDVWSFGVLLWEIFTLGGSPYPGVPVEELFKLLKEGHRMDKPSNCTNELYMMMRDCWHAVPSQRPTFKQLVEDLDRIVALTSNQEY
# T2 sequence (P06239 223-509 P223M/C224D): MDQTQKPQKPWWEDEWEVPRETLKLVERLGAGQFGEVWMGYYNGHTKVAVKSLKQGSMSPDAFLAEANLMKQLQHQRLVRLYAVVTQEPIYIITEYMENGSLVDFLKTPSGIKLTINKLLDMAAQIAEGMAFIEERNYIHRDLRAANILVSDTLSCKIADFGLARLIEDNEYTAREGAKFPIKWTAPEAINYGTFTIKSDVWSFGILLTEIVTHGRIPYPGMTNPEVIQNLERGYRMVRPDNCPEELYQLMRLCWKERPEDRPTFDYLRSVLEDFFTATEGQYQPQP
# Chain of CDK4/Cyclin D3 complex (P11802 whole entry, the tested form may be a part): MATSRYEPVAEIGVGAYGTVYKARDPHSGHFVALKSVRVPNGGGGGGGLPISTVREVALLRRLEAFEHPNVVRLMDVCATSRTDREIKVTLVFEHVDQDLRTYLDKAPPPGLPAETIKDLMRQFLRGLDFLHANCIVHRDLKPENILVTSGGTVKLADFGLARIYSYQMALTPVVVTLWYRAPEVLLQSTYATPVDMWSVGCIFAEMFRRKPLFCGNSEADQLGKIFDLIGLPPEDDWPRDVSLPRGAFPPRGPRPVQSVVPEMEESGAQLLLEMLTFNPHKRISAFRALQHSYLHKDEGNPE
# Chain of CDK4/Cyclin D3 complex (P30281 whole entry partner, the tested form may be a part): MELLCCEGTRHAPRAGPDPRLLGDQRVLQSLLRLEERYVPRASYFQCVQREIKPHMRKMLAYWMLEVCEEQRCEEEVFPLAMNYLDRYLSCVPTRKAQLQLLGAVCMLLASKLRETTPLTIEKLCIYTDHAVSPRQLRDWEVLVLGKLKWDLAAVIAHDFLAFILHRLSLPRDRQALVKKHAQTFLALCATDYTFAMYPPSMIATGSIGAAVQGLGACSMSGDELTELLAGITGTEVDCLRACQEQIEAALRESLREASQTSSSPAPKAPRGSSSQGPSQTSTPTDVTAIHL
# Chain of unphosphorylated VEGF-R2Δ50 (FLVK) (P35968 with tags, fused parts or gaps DEL940-989/E990V limits assumed): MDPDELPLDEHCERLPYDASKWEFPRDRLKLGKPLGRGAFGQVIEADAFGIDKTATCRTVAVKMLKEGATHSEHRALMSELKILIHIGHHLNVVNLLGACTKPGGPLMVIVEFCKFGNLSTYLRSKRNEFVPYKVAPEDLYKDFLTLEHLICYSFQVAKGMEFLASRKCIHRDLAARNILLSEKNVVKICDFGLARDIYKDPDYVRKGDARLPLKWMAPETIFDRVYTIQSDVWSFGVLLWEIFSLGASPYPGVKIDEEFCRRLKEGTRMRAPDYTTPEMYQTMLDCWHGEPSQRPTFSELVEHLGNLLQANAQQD
# Chain of CDK1 (P06493 whole entry, species assumed): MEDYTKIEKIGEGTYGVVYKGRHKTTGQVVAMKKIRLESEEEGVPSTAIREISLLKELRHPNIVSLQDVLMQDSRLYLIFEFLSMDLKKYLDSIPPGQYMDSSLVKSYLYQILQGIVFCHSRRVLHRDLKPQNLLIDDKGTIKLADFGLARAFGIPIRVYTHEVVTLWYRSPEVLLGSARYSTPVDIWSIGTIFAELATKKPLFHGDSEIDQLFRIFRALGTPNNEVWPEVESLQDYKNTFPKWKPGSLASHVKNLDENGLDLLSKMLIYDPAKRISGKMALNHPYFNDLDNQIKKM
# Chain of CDK1 (P14635 whole entry partner, species assumed): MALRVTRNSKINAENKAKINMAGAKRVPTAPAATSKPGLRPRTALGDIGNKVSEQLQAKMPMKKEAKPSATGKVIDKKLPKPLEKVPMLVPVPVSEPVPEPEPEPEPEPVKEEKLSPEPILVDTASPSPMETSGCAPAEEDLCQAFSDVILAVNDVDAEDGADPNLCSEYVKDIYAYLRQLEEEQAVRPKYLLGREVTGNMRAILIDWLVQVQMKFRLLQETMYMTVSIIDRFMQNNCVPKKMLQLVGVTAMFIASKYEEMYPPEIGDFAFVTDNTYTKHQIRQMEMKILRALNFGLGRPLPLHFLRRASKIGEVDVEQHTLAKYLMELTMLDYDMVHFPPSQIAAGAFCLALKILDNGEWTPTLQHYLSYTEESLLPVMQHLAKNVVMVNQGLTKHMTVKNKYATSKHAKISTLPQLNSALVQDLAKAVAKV
# Chain of phosphorylated VEGF-R2Δ50 (FLVK-P) (P35968 with tags, fused parts or gaps DEL940-989/E990V limits assumed): as the sequence (P35968 with tags, fused parts or gaps DEL940-989/E990V limits assumed) above
smiles,measurement,setting,value
"Oc1cccc(Oc2ccc3c(/C=C/c4ccccc4)n[nH]c3c2)c1 [Example 9(a), 3-(E-styryl)-6-[3-hydroxyphenoxy]-1H-indazole]",Ki,[1],2.4 nM
same,Ki,[2]; Table 1,400 nM
same,Ki,[3],16 nM
same,Ki,[4],1700 nM
same,Ki,[5],162 nM
"Cc1cccc(/C=C/c2n[nH]c3cc(-c4ccncc4)ccc23)c1 [Example 29(b), 6-Pyrid-4-yl-3-E-[2-(3-methylphenyl)ethenyl]-1H-indazole]",Ki,[6],3000 nM
same,Ki,[7],900 nM
same,Ki,[4],3900 nM
"COc1cccc(/C=C/c2n[nH]c3cc(-c4ccncc4)ccc23)c1 [Example 29(e), 6-Pyrid-4-yl-3-E-[2-(3-methoxyphenyl)ethenyl]-1H-indazole]",Ki,[6],1400 nM
same,Ki,[7],593 nM
same,Ki,[2]; Table 3,74 nM
same,Ki,[4],2000 nM
"CCCn1nc(C)cc1C(=O)Nc1cccc(C(=O)c2ccc3c(/C=C/c4ccccn4)n[nH]c3c2)c1 [Example 41(r), 6-[3-((1-n-Propyl-3-methyl-1H-pyrazol-5-yl)carboxamido)benzoyl]-3-E-[2-(pyridin-2-yl)ethenyl]-1H-indazole]",AUC(0-t),"[8]; female, IP, 25 mg/kg, vehicle PEG400:H2O pH 2.3 30:70",> 23800 ng·h/mL
same,Cmax,"[8]; female, IP, 25 mg/kg, vehicle PEG400:H2O pH 2.3 30:70, read-out: Cmax",> 5000 ng/mL
same,concentration at 7 h,"[8]; female, IP, 25 mg/kg, vehicle PEG400:H2O pH 2.3 30:70, read-out: Cmin (7 hr conc.)",> 5000 ng/mL
same,AUC(0-t),"[8]; female, PO, 50 mg/kg, vehicle PEG400:H2O pH 2.3 30:70",> 17800 ng·h/mL
same,Cmax,"[8]; female, PO, 50 mg/kg, vehicle PEG400:H2O pH 2.3 30:70, read-out: Cmax",> 5000 ng/mL
same,concentration at 7 h,"[8]; female, PO, 50 mg/kg, vehicle PEG400:H2O pH 2.3 30:70, read-out: Cmin (7 hr conc.)",> 5000 ng/mL
same,Initial Evaluation,[9],+/++ var
same,"% remain (HLM, 2 h)",[10],83%
"Fc1cccc(/C=C/c2n[nH]c3cc(-c4ccncc4)ccc23)c1 [Example 29(g), 6-Pyrid-4-yl-3-E-[2-(3-fluorophenyl)ethenyl]-1H-indazole]",Ki,[6],1400 nM
same,Ki,[7],390 nM
same,Ki,[2]; Table 3,68 nM
same,Ki,[4],1100 nM
"C(=N\n1cccc1)/c1n[nH]c2cc(-c3ccncc3)ccc12 [Example 51, 6-Pyrid-4-yl-3-E-(N-(pyrrol-1-yl)iminomethyl)-1H-indazole]",inhibition at 1 µM,[6]; compound concentration 1 μM,84%
same,Ki,[7],146 nM
same,Ki,[2]; Table 3,87 nM
same,inhibition at 1 µM,[4]; read-out: CDK4 % inhibition,79%
"O=C(c1cccc(NC(=O)c2ccccn2)c1)c1ccc2c(/C=C/c3ccccn3)n[nH]c2c1 [Example 41(aa), 6-[3-(Pyridin-2-ylcarboxamido)benzoyl]-3-E-[2-(pyridin-2-yl)ethenyl]-1H-indazole]",inhibition at 1 µM,[11],37%
same,AUClast,[8]; [13],6659 ng·h/mL
same,plasma half-life (T1/2),[8]; [13],2.1 h
same,AUClast,[8]; [14],289 ng·h/mL
same,plasma half-life (T1/2),[8]; [14],0.9 h
same,concentration at 7 h,[8]; [15],124 ng/mL
same,concentration at 7 h,[8]; [16],5 ng/mL
same,Ki,[1],0.11 nM
same,inhibition at 1 µM,[5],49%
same,IC50,[12]; [17],5.2 nM
same,IC50,[12]; read-out: HUVEC IC50,1 nM
"O=C(Nc1cccc(C(=O)c2ccc3c(/C=C/c4ccccn4)n[nH]c3c2)c1)c1ccccc1 [Example 42(a), 6-(3-Benzamidobenzoyl)-3-E-[2-(pyridin-2-yl)ethenyl]-1H-indazole]",Ki,[11],65 nM
same,AUClast,[8]; [13],19899 ng·h/mL
same,plasma half-life (T1/2),[8]; [13],5.0 h
same,AUClast,[8]; [14],8384 ng·h/mL
same,plasma half-life (T1/2),[8]; [14],2.0 h
same,concentration at 7 h,[8]; [15],1640 ng/mL
same,concentration at 7 h,[8]; [16],341 ng/mL
same,Ki,[1],0.046 nM
same,"% remain (HLM, 2 h)",[10],92%
same,Ki,[5],53 nM
"C(=C\c1n[nH]c2cc(-c3ccncc3)ccc12)/c1ccc2c(c1)OCO2 [Example 29(r), 6-Pyrid-4-yl-3-E-[2-(3,4-methylenedioxyphenyl)ethenyl]-1H-indazole]",Ki,[6],1300 nM
same,Ki,[7],66 nM
same,Ki,[2]; Table 3,72 nM
same,Ki,[4],1100 nM
"C(=C\c1n[nH]c2cc(-c3ccnc4[nH]ncc34)ccc12)/c1ccccc1 [Example 52(a), 6-(7-Azaindazol-4-yl)-3-E-styryl-1H-indazole]",inhibition at 1 µM,[7]; compound concentration 1 μM,39%
same,inhibition at 1 µM,[1]; read-out: FLVK % inhibition,60%
"O=C(Nc1ccc(O)cc1)c1ccc2c(-c3nc4ccccc4[nH]3)n[nH]c2c1 [Example 53(a), 3-(1H-Benzoidazol-2-yl)-N-(4-hydroxyphenyl)-1H-indazole-6-carboxamide]",inhibition at 5 µM,[6]; @ 5 μM,13%
same,Ki,[7],24000 nM
same,Ki,[2]; Table 3,301 nM
same,inhibition at 5 µM,[4]; read-out: CDK4 % inhibition,28%
"CCCn1nc(C)cc1C(=O)Nc1cc(C(=O)c2ccc3c(/C=C/c4ccccn4)n[nH]c3c2)ccc1C [Example 41(ii), 6-[3-((1-n-Propyl-3-methyl-1H-pyrazol-5-yl)carboxamido)-4-methylbenzoyl]-3-E-[2-(pyridin-2-yl)ethenyl]-1H-indazole]",Ki,[11],11 nM
same,AUClast,[8]; [18],7094 ng·h/mL
same,Cmax,[8]; [18],1826 ng/mL
same,plasma half-life (T1/2),[8]; [18],2.3 h
same,concentration at 7 h,[8]; [19],346 ng/mL
same,inhibition at 0.05 µM,[1]; read-out: FLVK % inhibition,57%
same,inhibition at 1 µM,[5],18%
same,IC50,[12]; [17],13 nM
O=C(c1cccc(NC(=O)c2ccno2)c1)c1ccc2c(/C=C/c3ccccc3)n[nH]c2c1 [Example 19(l)],inhibition at 1 µM,[11],88%
same,Ki,[1],0.72 nM
same,Ki,[3],4.7 nM
same,inhibition at 1 µM,[5],36%
same,IC50,[12]; [17],100 nM
"Cc1cnccc1C(=O)Nc1cccc(C(=O)c2ccc3c(/C=C/c4ccccn4)n[nH]c3c2)c1 [Example 41(j), 6-[3-((3-Methylpyridin-4-yl)carboxamido)benzoyl]-3-E-[2-(pyridin-2-yl)ethenyl]-1H-indazole]",inhibition at 1 µM,[11],41%
same,AUClast,[8]; [18],1476 ng·h/mL
same,plasma half-life (T1/2),[8]; [18],1.3 h
same,concentration at 7 h,[8]; [19],17 ng/mL
same,inhibition at 0.05 µM,[1]; read-out: FLVK % inhibition,98%
same,inhibition at 1 µM,[5],16%
same,IC50,[12]; [17],7.7 nM
C(=C\c1n[nH]c2cc(-c3ccncc3)ccc12)/c1ccccc1 [Example 27(f)],Ki,[6],3300 nM
same,Ki,[7],223 nM
same,Ki,[2]; Table 3,350 nM
same,Ki,[4],780 nM
"Fc1ccccc1/C=C/c1n[nH]c2cc(-c3ccncc3)ccc12 [Example 29(h), 6-Pyrid-4-yl-3-E-[2-(2-fluorophenyl)ethenyl]-1H-indazole]",Ki,[6],3000 nM
same,Ki,[7],1300 nM
same,Ki,[2]; Table 3,140 nM
same,Ki,[4],2200 nM
